{"source": "patent US20230346717A1", "about": "“IDENTIFICATION AND USE OF COMPOUNDS IN THE TREATMENT OR PREVENTION OF SEVERE ACUTE RESPIRATORY SYNDROME CORONAVIRUS 2” (priority 2020, published 2023)", "type_in_all_cases": "cell-based, human", "key": {"CTSK": {"system": "CTSK", "assay": "Gene expression assay, lysosome gene CTSK", "conditions": "probe 202450_s_at; ARPE-19/HPV-16, 10 μM, 24 h", "source_text": "(§1) A drug screen was used to test agents having the potential to treat or prevent SARS-CoV-2 infection. The retinal pigment epithelia cell line, ARPE-19/HPV-16, was chosen to establish a database of drug profiles because of its non-cancerous, human origin, with a normal karyotype. ARPE-19/HPV-16 can be easily grown as monolayer in 96-well plates and expresses a variety of well known, neuronal, cell surface receptors that include the dopamine receptor D2, the serotonin receptors 1A, 2A, and 2C, the muscarinic receptor M3, and the histamine receptor H1.\n(§2) Cell lines were propagated according to supplier's specifications (ATCC Manassas, VA). Compounds were obtained from Sigma (St. Louis, MO) or Vanda Pharmaceuticals (Washington, DC). Cells were aliquoted on 96-well plates (˜2×10^5 cells/well) and incubated for 24 hours prior to providing fresh media with a drug, or the drug vehicle (water, dimethyl sulfoxide, ethanol, methanol, or phosphate-buffered saline solution). Drugs were diluted 1000-fold in buffered Advanced D-MEM/F-12 culture medium (Invitrogen, Carlsbad, CA) containing nonessential amino acids and 110 mg/L sodium pyruvate. […]\n(§3) Cells were harvested 24 hours after treatment and RNA was extracted using the RNeasy 96 protocol (Qiagen, Valencia, CA). […] A total of 708 microarrays were analyzed including 74 for 18 antipsychotics, 499 for 448 other compounds, and 135 for vehicle controls. […]"}, "CTSB": {"system": "CTSB", "assay": "Gene expression assay, lysosome gene CTSB", "conditions": "probe 213274_s_at; ARPE-19/HPV-16, 10 μM, 24 h", "source_text": "as §1, §2, §3"}, "CTBS": {"system": "CTBS", "assay": "Gene expression assay, lysosome gene CTBS", "conditions": "probe 218924_s_at; ARPE-19/HPV-16, 10 μM, 24 h", "source_text": "as §1, §2, §3"}, "MAR3": {"system": "MAR3", "assay": "Gene expression assay, lysosome gene MAR3", "conditions": "probe 213256_at; ARPE-19/HPV-16, 10 μM, 24 h", "source_text": "as §1, §2, §3"}, "RNASET2": {"system": "RNASET2", "assay": "Gene expression assay, lysosome gene RNASET2", "conditions": "probe 217983_s_at; ARPE-19/HPV-16, 10 μM, 24 h", "source_text": "as §1, §2, §3"}, "LAMP1": {"system": "LAMP1", "assay": "Gene expression assay, lysosome gene LAMP1", "conditions": "probe 201551_s_at; ARPE-19/HPV-16, 10 μM, 24 h", "source_text": "as §1, §2, §3"}, "LGMN": {"system": "LGMN", "assay": "Gene expression assay, lysosome gene LGMN", "conditions": "probe 201212_at; ARPE-19/HPV-16, 10 μM, 24 h", "source_text": "as §1, §2, §3"}, "RAB38": {"system": "RAB38", "assay": "Gene expression assay, lysosome gene RAB38", "conditions": "probe 219412_at; ARPE-19/HPV-16, 10 μM, 24 h", "source_text": "as §1, §2, §3"}, "BCL10": {"system": "BCL10", "assay": "Gene expression assay, lysosome gene BCL10", "conditions": "probe 205263_at; ARPE-19/HPV-16, 10 μM, 24 h", "source_text": "as §1, §2, §3"}, "PCYOX1": {"system": "PCYOX1", "assay": "Gene expression assay, lysosome gene PCYOX1", "conditions": "probe 203803_at; ARPE-19/HPV-16, 10 μM, 24 h", "source_text": "as §1, §2, §3"}, "GALC": {"system": "GALC", "assay": "Gene expression assay, lysosome gene GALC", "conditions": "probe 204417_at; ARPE-19/HPV-16, 10 μM, 24 h", "source_text": "as §1, §2, §3"}, "CD164": {"system": "CD164", "assay": "Gene expression assay, lysosome gene CD164", "conditions": "probe 208654_s_at; ARPE-19/HPV-16, 10 μM, 24 h", "source_text": "as §1, §2, §3"}, "GJA1": {"system": "GJA1", "assay": "Gene expression assay, lysosome gene GJA1", "conditions": "probe 201667_at; ARPE-19/HPV-16, 10 μM, 24 h", "source_text": "as §1, §2, §3"}, "CPQ": {"system": "CPQ", "assay": "Gene expression assay, lysosome gene CPQ", "conditions": "ARPE-19/HPV-16, 10 μM, 24 h", "source_text": "as §1\nCell lines were propagated according to supplier's specifications (ATCC Manassas, VA). Compounds were obtained from Sigma (St. Louis, MO) or Vanda Pharmaceuticals (Washington, DC). Cells were aliquoted on 96-well plates (˜2×10^5 cells/well) and incubated for 24 hours prior to providing fresh media with a drug, or the drug vehicle (water, dimethyl sulfoxide, ethanol, methanol, or phosphate-buffered saline solution). Drugs were diluted 1000-fold in buffered Advanced D-MEM/F-12 culture medium (Invitrogen, Carlsbad, CA) containing nonessential amino acids and 110 mg/L sodium pyruvate. In these conditions, no significant changes of pH were expected, which was confirmed by the monitoring of the pH indicator present in the medium.\nA final 10 μM drug concentration was chosen because it is believed to fit in the range of physiological relevance. Microscopic inspection of each well was conducted at the end of the treatment to discard any samples where cells had morphological changes consistent with apoptosis. It was also verified that the drug had not precipitated in the culture medium.\nCells were harvested 24 hours after treatment and RNA was extracted using the RNeasy 96 protocol (Qiagen, Valencia, CA). Gene expression for 22,238 probe sets of 12,490 genes was generated with U133A2.0 microarrays following the manufacturer's instructions (Affymetrix, Santa Clara, CA). Drugs were profiled in duplicate or triplicate, with multiple vehicle controls on each plate. A total of 708 microarrays were analyzed including 74 for 18 antipsychotics, 499 for 448 other compounds, and 135 for vehicle controls.\nThe raw scan data were first converted to average difference values using MAS 5.0 (Affymetrix). The average difference values of both treatment and control data were set to a minimum threshold of 50 if below 50. For each treatment instance, all probe sets were then ranked based on their amplitude, or level of expression relative to the vehicle control (or average of controls when more than one was used). Amplitude was defined as the ratio of expression (t−v)/[(t+v)/2] where t corresponds to treatment instance and v to vehicle instance. […]"}, "SCARB2": {"system": "SCARB2", "assay": "Gene expression assay, lysosome gene SCARB2", "conditions": "probe 201647_s_at; ARPE-19/HPV-16, 10 μM, 24 h", "source_text": "as §1, §2, §3"}, "CTSH": {"system": "CTSH", "assay": "Gene expression assay, lysosome gene CTSH", "conditions": "probe 202295_s_at; ARPE-19/HPV-16, 10 μM, 24 h", "source_text": "as §1, §2, §3"}, "CTSL": {"system": "CTSL", "conditions": "ARPE-19/HPV-16 cells, 10 μM drug, 24 hours", "text": "Each drug group profile was created using a novel Weighted Influence Model, Rank of Ranks (WIMRR) method which underscores the rank of each probe set across the entire gene expression profile rather than the specific change in expression level. WIMRR takes the average rank of each probe set across all of the members of the group and then re-ranks the probe sets from smallest average rank to largest average rank. A gene-set enrichment metric based on the Kolmogorov-Smirnov (KS) statistic.\nApplicant analyzed expression profile of CTSL across all 466 drugs tested. In order to find positive hits and selected only those results that caused decrease of CTSL expression by at least 33% (1.5-fold down)."}}, "note": "Structures can show the parent of a compound that is named as a salt.", "data": [{"smiles": "NC12CC3CC(CC(C3)C1)C2", "note": "[Amantadine Hydrochloride]", "values": [{"measurement": "avg_tx (log2) CTSK", "setting": "CTSK", "value": 7.09, "unit": "log2"}, {"measurement": "diff (log2) CTSK", "setting": "CTSK", "value": "−1.81", "unit": "log2"}, {"measurement": "avg_tx (log2) CTSB", "setting": "CTSB", "value": 7.75, "unit": "log2"}, {"measurement": "diff (log2) CTSB", "setting": "CTSB", "value": "−1.48", "unit": "log2"}, {"measurement": "avg_tx (log2) CTBS", "setting": "CTBS", "value": 6.59, "unit": "log2"}, {"measurement": "diff (log2) CTBS", "setting": "CTBS", "value": "−1.32", "unit": "log2"}, {"measurement": "avg_tx (log2) MAR3", "setting": "MAR3", "value": 5.55, "unit": "log2"}, {"measurement": "diff (log2) MAR3", "setting": "MAR3", "value": "−1.57", "unit": "log2"}, {"measurement": "avg_tx (log2) RNASET2", "setting": "RNASET2", "value": 8, "unit": "log2"}, {"measurement": "diff (log2) RNASET2", "setting": "RNASET2", "value": "−1.81", "unit": "log2"}, {"measurement": "avg_tx (log2) LAMP1", "setting": "LAMP1", "value": 7.87, "unit": "log2"}, {"measurement": "diff (log2) LAMP1", "setting": "LAMP1", "value": "−1.4", "unit": "log2"}, {"measurement": "avg_tx (log2) LGMN", "setting": "LGMN", "value": 8.33, "unit": "log2"}, {"measurement": "diff (log2) LGMN", "setting": "LGMN", "value": "−1.35", "unit": "log2"}, {"measurement": "avg_tx (log2) RAB38", "setting": "RAB38", "value": 6.51, "unit": "log2"}, {"measurement": "diff (log2) RAB38", "setting": "RAB38", "value": "−1.3", "unit": "log2"}, {"measurement": "avg_tx (log2) BCL10", "setting": "BCL10", "value": 7.44, "unit": "log2"}, {"measurement": "diff (log2) BCL10", "setting": "BCL10", "value": "−1.25", "unit": "log2"}, {"measurement": "avg_tx (log2) PCYOX1", "setting": "PCYOX1", "value": 7.15, "unit": "log2"}, {"measurement": "diff (log2) PCYOX1", "setting": "PCYOX1", "value": "−1.57", "unit": "log2"}, {"measurement": "avg_tx (log2) GALC", "setting": "GALC", "value": 6.58, "unit": "log2"}, {"measurement": "diff (log2) GALC", "setting": "GALC", "value": "−2.06", "unit": "log2"}, {"measurement": "avg_tx (log2) CD164", "setting": "CD164", "value": 8.7, "unit": "log2"}, {"measurement": "diff (log2) CD164", "setting": "CD164", "value": "−1.34", "unit": "log2"}, {"measurement": "avg_tx (log2) GJA1", "setting": "GJA1", "value": 11.23, "unit": "log2"}, {"measurement": "diff (log2) GJA1", "setting": "GJA1", "value": "−1.76", "unit": "log2"}, {"measurement": "avg_tx (log2) CPQ", "setting": "CPQ; probe 203501_at", "value": 6.41, "unit": "log2"}, {"measurement": "diff (log2) CPQ", "setting": "CPQ; probe 203501_at", "value": "−1.55", "unit": "log2"}, {"measurement": "avg_tx (log2) CPQ", "setting": "CPQ; probe 208454_s_at", "value": 7.3, "unit": "log2"}, {"measurement": "diff (log2) CPQ", "setting": "CPQ; probe 208454_s_at", "value": "−1.34", "unit": "log2"}, {"measurement": "avg_tx (log2) SCARB2", "setting": "SCARB2", "value": 6.97, "unit": "log2"}, {"measurement": "diff (log2) SCARB2", "setting": "SCARB2", "value": "−1.63", "unit": "log2"}, {"measurement": "avg_tx (log2) CTSH", "setting": "CTSH", "value": 9.62, "unit": "log2"}, {"measurement": "diff (log2) CTSH", "setting": "CTSH", "value": "−2.51", "unit": "log2"}, {"measurement": "log2(treated) CTSL", "setting": "CTSL", "value": 9.62, "unit": "log2"}, {"measurement": "log2 difference (CTSL, treated vs control)", "setting": "CTSL", "value": "−0.70", "unit": "log2"}]}]}
